This is an account of results in paper PMC6941357, “An in vitro toolbox to accelerate anti-malarial drug discovery and development” (Malaria Journal, 2020).

For orientation: fraction unbound means the share of the substance not bound to proteins or other matrix. Low values mean little free substance, high ones much free substance. For orientation: Papp B→A means the apparent permeability from the basolateral to the apical side of a cell layer. In general, Papp A→B refers to how fast a substance crosses the layer from the apical side. What is called microsomal CLint is the capacity of the preparation to metabolise the compound, expressed as a volume cleared per time. Low readings indicate greater metabolic stability, high ones faster metabolism. As usually defined, the solubility is how much of the substance goes into solution per volume. High values mean much dissolved substance, low ones little dissolved substance. In general, efflux ratio refers to the permeability from basolateral to apical divided by that in the opposite direction, in the common usage.

Several values for one entry are separate records, joined by “and”; a condition that tells them apart may be missing. Equal entries are not always repeated. Where two headings read alike, the source gives them in different places. Marks after values point to notes of the source that are not given here. Some results are limits rather than exact numbers.

The target in series [1] is T1, Albumax medium (lipid rich bovine serum albumin) (Bos taurus, UniProt P02769).
T1 construct: purchased Gibco, Thermo Fisher Scientific
T1 sequence (P02769 25-607): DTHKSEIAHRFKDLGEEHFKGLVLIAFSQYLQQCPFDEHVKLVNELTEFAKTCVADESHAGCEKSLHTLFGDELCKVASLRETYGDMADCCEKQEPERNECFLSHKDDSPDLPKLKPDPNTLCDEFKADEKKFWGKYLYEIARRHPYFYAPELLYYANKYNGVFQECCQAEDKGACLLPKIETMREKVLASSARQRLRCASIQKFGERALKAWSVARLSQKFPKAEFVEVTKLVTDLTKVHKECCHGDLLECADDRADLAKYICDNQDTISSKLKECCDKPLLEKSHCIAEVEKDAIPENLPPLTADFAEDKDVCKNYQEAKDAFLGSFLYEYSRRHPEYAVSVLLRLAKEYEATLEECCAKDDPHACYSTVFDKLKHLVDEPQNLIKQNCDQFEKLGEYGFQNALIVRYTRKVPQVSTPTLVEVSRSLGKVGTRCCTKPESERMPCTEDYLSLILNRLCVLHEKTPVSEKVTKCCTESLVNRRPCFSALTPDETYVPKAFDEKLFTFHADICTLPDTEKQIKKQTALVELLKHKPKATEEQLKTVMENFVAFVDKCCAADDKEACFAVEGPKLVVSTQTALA
Nature of the series: Binding in Albumax medium via ultracentrifugation. The conditions noted are these: for fraction unbound at […], 500 ng/mL: bovine, pH 7.4. It counts as in vitro ADME. A digest of the protocol:
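Unbound fraction (fu) taken as protein-free supernate concentration over total concentration after ultracentrifuging compound-spiked Albumax at 37 °C (5% or 10% CO2, or air). Analysis used 1:1 mixing with the opposite blank matrix against a common pH 7.4 calibration; degradation judged by start versus end Ctotal.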

The next series relates to human plasma. The conditions noted are these: methods UF, ED, EP or not described per compound, ref [6]–[22] of Additional file 1; cited from earlier work.
Series [2] in a line: Ionization constants by potentiometric titration. Type of series: physicochemical. To be noted: mean ± SD, n = 3 titrations; for pKa: aqueous solution (DMSO stock diluted 1:10 with water), read-out: Measured pKa. An outline of the steps: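 Glass electrode calibrated at pH 2, 4, 7 and 10; reagents standardized against potassium hydrogen phthalate, titrants protected from CO2. Samples diluted 1:10 with water in the titration vessel, typical final compound concentration 0.5 mM.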

The nature of series [3]: Bidirectional permeability across Caco-2 cell monolayers. To be noted: human. A digest of the protocol: (§1)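 Transport run in both directions with either HBSS/20 mM HEPES pH 7.4 or human plasma in apical and basolateral chambers, 0.1% v/v DMSO in donor. Donor and acceptor samples quantified by LC–MS; Papp and mass balance calculated, with plasma Papp corrected for donor fraction unbound. Efflux ratio = mean B–A/A–B Papp.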
(In general: Caco-2 cells form a polarised layer with tight junctions and transporters.)

Series [4] can be described thus: In vitro metabolism (metabolic stability) in human liver microsomes. The conditions noted are these: human, pH 7.4, HLM CLint. An outline of the steps: (§2)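 Compound depletion in human liver microsomes was followed by LC–MS at 2–60 min, with cofactor-free controls. First-order depletion rate constants gave in vitro CLint (µL/min/mg protein), corrected to unbound CLint using measured microsomal fu.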

Series [5] can be described thus: Solubility in biorelevant media. To be noted: for solubility at 1 h: FaSSGF, fassgf or other biorelevant; for solubility at 1 h / Solubility FaSSGF (1 h) / Solubility FaSSIF-V2 (5–6 h) / Solubility FeSSIF-V2 (5–6 h) / Solubility PBS7.4 (5–6 h): 37 °C; for solubility at 1 h / solubility: thermodynamic from solid. An outline of the steps:
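Measured at 37 °C with 600 rpm orbital shaking in pH 7.4 PBS, FaSSIF-V2, FeSSIF-V2 and FaSSGF. Sampled at 1 h (FaSSGF) or 5–6 h (other media) after double centrifugation; supernatant quantified by LC–MS against calibration standards, triplicate aliquots.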

A further series deals with human liver microsomes. Nature of the series: in vitro. The conditions noted are these: for HLM CLint: microsomes. A digest of the protocol:
as §2

The test system of the next series is Caco-2 cell monolayers. The experiment in a line: Bidirectional permeability across Caco-2 cell monolayers. To be noted: matrix: human plasma; for A–B Papp / B–A Papp: corrected for fu. A digest of the protocol: as §1
Setting [6] is: liver microsomes, human liver microsomes, average of n = 2 replicates, < 7 means < 15% loss over 60 min.
Where [7] appears, read: phosphate buffered saline pH 7.4, 37 °C, pH 7.4, aqueous buffer.

Turning to `COc1ncnc(NS(=O)(=O)c2ccc(N)cc2)c1OC` [Sulfadoxine], the unbound share (fraction unbound) at […], 500 ng/mL in series [1] (isolated protein) came to 0.5 ± 0.03. Also, in the series with human plasma, the Literature fu is listed as 0.05-0.1. Also, in series [2] (acidic pKa (A)), the pKa was determined as 6.2 ± 0.01. The Papp B→A in series [3] (Caco-2, pH 7.4) stood at 23 ± 2.8 ×10⁻⁶ cm/s. Also, the apical-to-basolateral permeability (Papp A→B) in series [3] (Caco-2, pH 7.4, A–B Papp, matrix: pH 7.4 buffer) stood at 15 ± 2.5 ×10⁻⁶ cm/s. Moreover, the microsomal CLint at 1 µM in series [4] (setting [6]) is < 7 µL/min/mg. Besides, the solubility at 1 h in series [5] was 324 µg/mL and 1040 µM. Moreover, the solubility was 858 µg/mL and 2770 µM in series [5] (FaSSIF-V2, 37 °C, fassif); 474 µg/mL and 1530 µM in series [5] (FeSSIF-V2, 37 °C, fessif); > 1900 µg/mL and > 6400 µM in series [5] (setting [7]).

The compound `OC(c1cc(C(F)(F)F)nc2c(C(F)(F)F)cccc12)C1CCCCN1` (stereo not shown) [Mefloquine] had a fraction unbound at […], 500 ng/mL in series [1] (Albumax medium) of 0.27 ± 0.019. Also, the Literature fu with human plasma is listed as 0.02. The pKa in series [2] (basic pKa (B)) came to 8.5 ± 0.04. The “Unbound CLint” value with human liver microsomes (human, 1 µM, pH 7.4) was < 140^c µL/min/mg. Moreover, the microsomal CLint at 1 µM in series [4] (microsomes) was < 7 µL/min/mg. Besides, in series [5], the solubility at 1 h was 740 µg/mL and 1960 µM. The solubility in series [5] (FaSSIF-V2, 37 °C, fassif) is 584 µg/mL and 1540 µM; in series [5] (FeSSIF-V2, 37 °C, fessif), > 2000 µg/mL and > 5200 µM; in series [5] (setting [7]) it was 290 µg/mL and 767 µM.

As to `CC(C)(C)NCc1cc(C(C)(C)C)cc(-c2cnc(C(F)(F)F)c(F)c2)c1O` [JPC3210], in series [1], the “Fraction unbound, Albumax” value was 0.21 ± 0.012. In addition, in the series on human plasma, the Literature fu is 0.024. In addition, in series [2] (acidic pKa (A)), the “Measured pKa” value was 5.3 ± 0.04 (A). In the series with Caco-2 cell monolayers, the “A–B Papp” value is given as > 300 10^−6 cm/s and the “B–A Papp” value is given as > 300 10^−6 cm/s. For the same compound, the “Unbound CLint” value in the series with human liver microsomes was 328 µL/min/mg. Besides, in the series on human liver microsomes (human), the “HLM CLint” value is 9.50 µL/min/mg. Besides, in series [5], the “Solubility FaSSGF (1 h)” value was 213 µg/mL and 535 µM; the “Solubility FaSSIF-V2 (5–6 h)” value is 7.60 µg/mL and 19.1 µM; the “Solubility FeSSIF-V2 (5–6 h)” value was 131 µg/mL and 329 µM; the “Solubility PBS7.4 (5–6 h)” value is 0.800 µg/mL and 2.01 µM.

In series [1] (isolated protein), `CCc1nc(N)nc(N)c1-c1ccc(Cl)cc1` [Pyrimethamine] came in with a fraction unbound at […], 500 ng/mL of 0.46 ± 0.09. For the same compound, the Literature fu with human plasma is 0.088. Besides, the pKa in series [2] (basic pKa (B)) stood at 6.9 ± 0.1. Also, the Papp A→B in series [3] (Caco-2, pH 7.4) came out at 60 ± 5.6 ×10⁻⁶ cm/s. Further, the Papp B→A in series [3] (Caco-2, pH 7.4) amounted to 59 ± 2.9 ×10⁻⁶ cm/s. The microsomal CLint at 1 µM in series [4] (setting [6]) is < 7 µL/min/mg. The solubility at 1 h in series [5] is > 2000 µg/mL and > 8000 µM. Also, the solubility in series [5] (FaSSIF-V2, 37 °C, fassif) was 111 µg/mL and 446 µM; in series [5] (FeSSIF-V2, 37 °C, fessif), 120 µg/mL and 483 µM; in series [5] (setting [7]), 43 µg/mL and 175 µM.

With `CCN(CC)CCCNc1ccnc2cc(Cl)ccc12.Cl.Cl` [AQ-13], in series [1], the “Fraction unbound, Albumax” value was 0.85 ± 0.028. Further, the Literature fu in the series with human plasma is reported as 0.45. In series [2] (basic pKa (B)), the “Measured pKa” value is on record as 7.6 ± 0.2 (B). In addition, in the series with Caco-2 cell monolayers, the “A–B Papp” value is reported as 25 ± 2.3 10^−6 cm/s and the “B–A Papp” value is 32 ± 0.8 10^−6 cm/s. The efflux ratio in the series on Caco-2 cell monolayers (mean B–A/A–B Papp) is 1.2. The “Unbound CLint” value with human liver microsomes is < 10.6^c µL/min/mg. The “HLM CLint” value with human liver microsomes (human) is given as < 7^b µL/min/mg. Moreover, in series [5], the “Solubility FaSSGF (1 h)” value is > 2000 µg/mL and > 6850 µM; the “Solubility FaSSIF-V2 (5–6 h)” value is > 2000 µg/mL and > 6850 µM; the “Solubility FeSSIF-V2 (5–6 h)” value is > 2000 µg/mL and > 6850 µM; the “Solubility PBS7.4 (5–6 h)” value is 1480 µg/mL and 5070 µM.
